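Cultured in 96-well plates, cells were exposed to test compound for 48 hours across five concentrations. The concentration for 50% growth inhibition is given as GI50. At the TGI there is no net growth.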

What all share (experiment): DTP human tumour cell line panel, 48 h
Experiment [1] concerns HOP-62 NSCLC.
The subject of experiment [2] is OVCAR-5 ovarian.
Experiment [3] deals with SN12C renal.
Experiment [4] relates to MDA-MB-435.
Experiment [5] concerns MALME-3M melanoma.
Experiment [6] has as its system K-562 leukemia.
Experiment [7] has as its system SF-539 CNS.
Experiment [8] relates to PC-3 prostate.
Experiment [9] has as its system NCI/ADR-RES ovarian.
Experiment [10] deals with SK-OV-3 ovarian.

On to `COc1ccc(C2OC(c3ccncc3)=NN2C)cc1F` (stereo not given), for which the TGI in [1], in experiment [2], in [3], in experiment [4], in experiment [5] and in [6] was > 100 µM each time. The TGI in experiment [7], in [8], in experiment [9] and in experiment [10] was > 100 µM in each case.

Regarding `Cc1cccc(C)c1NC(=O)C(Cc1c[nH]c2ccccc12)NC(=O)OCc1ccccc1` (stereo not given), the TGI in [1] was > 100 µM; in [2], 51.6 µM; in [3], 80.7 µM; in experiment [4], 48.5 µM; in [5], 52.8 µM; in experiment [6], > 100 µM. In addition, the TGI in experiment [7] was found to be 41 µM; in experiment [8], 28.8 µM; in [9], 40.3 µM; in experiment [10], 65.1 µM.

In the case of `C/C(=N\N=C1/C(=O)OC(c2ccccc2)=C1C(=O)c1ccccc1)c1ccc([N+](=O)[O-])cc1`, the TGI in [1], in [2], in experiment [3], in [4], in experiment [5] and in [6] was > 100 µM throughout. Further, the TGI in [7], in experiment [8], in [9] and in [10] was > 100 µM in each case.

`Cc1nn(-c2ccccc2)c2c1C(c1cc3ccccc3nc1Cl)NC(=O)N2` (stereo not given): the TGI is 54.4 µM in experiment [1]; 43.8 µM in experiment [2]; 67.5 µM in experiment [3]; 54.7 µM in [4]; 51.8 µM in experiment [5]; > 100 µM in experiment [6]. For the same compound, the TGI in experiment [7] is 45.9 µM; in [8] it was 43.7 µM; in experiment [9], > 100 µM; in experiment [10] it was 49.1 µM.

Regarding `N#CC(C#N)=C1SC(=Nc2ccccc2)C(=Nc2ccccc2)N1c1ccccc1`, the TGI in experiment [1] was > 80.9 µM; in [2], 47.3 µM; in experiment [3] it was 77.2 µM; in [4], 35.1 µM; in [5], 67.6 µM; in [6], 7.12 µM. Also, the TGI in experiment [7] is 22.5 µM; in [8] it was 25.1 µM; in [9], 97.1 µM; in [10], > 100 µM.

As for `COc1cc2c(cc1OC)C1C3CCCCC3CCN1CC2` (stereo not given), the TGI in [1], in experiment [2], in [3], in experiment [4], in [5] and in experiment [6] was > 100 µM in each case. Also, the TGI in [7], in experiment [8], in experiment [9] and in experiment [10] was > 100 µM throughout.

Take `O=[N+]([O-])C(=C(Nc1cccc2cccnc12)Nc1cccc2cccnc12)C(Cl)=C(Cl)Cl`: the TGI is > 100 µM in experiment [1]; > 100 µM in experiment [2]; > 95.7 µM in experiment [3]; > 100 µM in [4]; > 100 µM in experiment [5]; > 100 µM in [6]. For the same compound, the TGI is > 100 µM in [7], > 100 µM in experiment [8], > 94 µM in experiment [9] and > 100 µM in experiment [10].

On to `Clc1ccc(-c2nnc3sc4nc5ccccc5c-4nn23)c(Cl)c1`, for which the TGI in experiment [1], in experiment [2], in experiment [3], in experiment [4], in experiment [5] and in [6] was > 100 µM throughout. The TGI in experiment [7], in [8], in experiment [9] and in [10] was > 100 µM each time.

`Cc1cc(/N=C/c2ccc(N(C)C)cc2)n(-c2ccccc2)n1`: the TGI in experiment [1], in experiment [2], in experiment [3], in experiment [4], in experiment [5] and in experiment [6] was > 100 µM in each case. For the same compound, the TGI in experiment [7], in experiment [8], in [9] and in [10] was > 100 µM throughout.

`CC(C)SC(=S)Sc1c(Cl)c(Cl)nc(Cl)c1Cl`: the TGI in experiment [1] was 18.4 µM; in [2] it was 33.1 µM; in [3], 27.6 µM; in [4], 19.6 µM; in experiment [5] it was 30.1 µM; in [6] it was 10.7 µM. Further, the TGI in experiment [7] came to 24.8 µM; in experiment [8], 16 µM; in experiment [9], 61.2 µM; in experiment [10], 32.7 µM.

`COc1cc(OC)cc(C(=O)CC(=O)c2cc(OC)cc(OC)c2)c1`: the TGI in experiment [1], in experiment [2], in experiment [3], in experiment [4], in experiment [5] and in experiment [6] was > 100 µM in each case. The TGI in experiment [7], in [8], in experiment [9] and in experiment [10] was > 100 µM each time.

In the case of `O=C(O)CN1CCN2CCCCCN(CC1)CCN(CC(=O)O)CC2`, the TGI in experiment [1], in experiment [2], in experiment [3], in experiment [4], in [5] and in experiment [6] was > 100 µM throughout. Further, the TGI in experiment [7], in experiment [8], in [9] and in experiment [10] was > 100 µM throughout.

As for `NC(=O)c1c(NC(=O)c2ccccc2)sc2c1CCC(=O)C2`, the GI50 was 3.66 µM in experiment [1]; 1.77 µM in experiment [2]; 0.612 µM in [3]; 3.09 µM in experiment [4]; 2.14 µM in [5]; 0.402 µM in experiment [6]. Moreover, the GI50 in experiment [7] was 0.75 µM; in experiment [8] it was 0.319 µM; in experiment [9] it was 1.28 µM; in experiment [10], 2.91 µM. The TGI in experiment [1] is > 100 µM; in [2], 11 µM; in experiment [3] it was 11.5 µM; in experiment [4], 10.5 µM; in experiment [5], 5.53 µM; in [6], > 100 µM. The TGI is 3.27 µM in experiment [7], 17.6 µM in [8], 10.4 µM in [9] and > 100 µM in experiment [10].

`O=S(=O)(O)C(CO)c1ccccc1` (stereo not given) (tested in a mixture with another compound): the TGI in experiment [1], in [2], in [3], in [4], in experiment [5] and in experiment [6] was > 100 µM each time. Also, the TGI in [7], in experiment [8], in experiment [9] and in [10] was > 100 µM each time.

With `S=c1c2cn[nH]c2nc2scc(-c3ccc(Cl)cc3)n12`, the TGI in experiment [1] is 40.1 µM; in [2], 29.4 µM; in [3], 32 µM; in [4] it was 15.7 µM; in experiment [5], 49.6 µM; in experiment [6], > 100 µM. Besides, the TGI in experiment [7] was 38.4 µM; in [8], 29.8 µM; in [9], 31.2 µM; in experiment [10], > 100 µM.

Regarding `N[C@@H](Cc1ccccc1)C(=O)N1CCC[C@@H]1P(=O)(Oc1ccccc1)Oc1ccccc1`, the TGI in experiment [1], in experiment [2], in experiment [3], in experiment [4], in experiment [5] and in experiment [6] was > 100 µM each time. The TGI in experiment [7], in [8], in [9] and in [10] was > 100 µM each time.

Take `O=C1NC2c3c(I)sc(I)c3C(O)C2O1` (stereo not given): the TGI in experiment [1], in experiment [2], in experiment [3], in experiment [4], in [5] and in experiment [6] was > 100 µM throughout. The TGI in experiment [7], in experiment [8], in [9] and in experiment [10] was > 100 µM in each case.

Regarding `O=C(O)CN1CCNCCN(CC(=O)O)CCN(CC(=O)O)CCNCC1`, the TGI in experiment [1], in experiment [2], in experiment [3], in experiment [4], in [5] and in experiment [6] was > 100 µM each time. Moreover, the TGI in experiment [7], in experiment [8], in experiment [9] and in [10] was > 100 µM in each case.

For `Cn1c(SCc2ccc(F)cc2)nnc1C12CC3CC(CC(C3)C1)C2`, the TGI in experiment [1] is > 100 µM; in experiment [2], > 100 µM; in experiment [3], > 100 µM; in experiment [4], 61.7 µM; in [5], 60.8 µM; in [6] it was > 100 µM. Further, the TGI in experiment [7] was 65.1 µM; in experiment [8], > 100 µM; in [9] it was > 100 µM; in [10] it was > 100 µM.

On to `CCNC(=S)NNC(=O)C12CC3CC(CC(C3)C1)C2`, for which the TGI in experiment [1], in [2], in [3], in experiment [4], in experiment [5] and in experiment [6] was > 100 µM throughout. Moreover, the TGI in experiment [7], in experiment [8], in experiment [9] and in experiment [10] was > 100 µM in each case.

As to `O=C(O)c1ccccc1CC(Cc1ccc2c(c1)CCC2)C(=O)O` (stereo not given), the TGI in experiment [1], in experiment [2], in [3], in experiment [4], in experiment [5] and in experiment [6] was > 100 µM throughout. The concentration for total growth inhibition (TGI) in experiment [7], in experiment [8], in experiment [9] and in [10] was > 100 µM throughout.

As for `CC(=NNC(=S)Nc1ccccc1)c1cccc(C(C)=NNC(=S)Nc2ccccc2)n1`, the TGI in experiment [1] was > 100 µM; in [2], > 100 µM; in experiment [3], > 100 µM; in experiment [4], > 100 µM; in experiment [5], 52.5 µM; in [6] it was > 53.5 µM. In addition, the TGI in [7] is 12.5 µM; in experiment [8], > 100 µM; in experiment [9], > 100 µM; in experiment [10], > 84.5 µM.

Take `CC1=CCC([C@@](C)(O)CCCC(C)(C)N=C=S)CC1` (stereo not given in full): the TGI in experiment [1] came to 40 µM; in experiment [2], 34.9 µM; in experiment [3], 35.6 µM; in experiment [4], 31 µM; in [5], 28.3 µM; in experiment [6], 42.4 µM. The TGI in experiment [7] worked out at 33.3 µM; in [8], 33 µM; in experiment [9] it was 38.9 µM; in experiment [10], 32.9 µM.

With `COc1ccc(N2C(=O)CC(=O)N(NC(=O)C(C)Oc3ccccc3C)C2=S)cc1` (stereo not given), the TGI in [1], in experiment [2], in experiment [3], in experiment [4], in experiment [5] and in experiment [6] was > 100 µM throughout. Besides, the concentration for total growth inhibition (TGI) in experiment [7], in experiment [8], in [9] and in [10] was > 100 µM throughout.

As to `C=C1C(=O)CC2C1CC(=O)/C(C)=C/CCC(C)(O)C2O` (stereo not given), the TGI in experiment [1] is 43.7 µM; in experiment [2], 27.7 µM; in experiment [3], 5.32 µM; in experiment [4], 20.4 µM; in experiment [5] it was 3.01 µM; in experiment [6], 15.7 µM. In addition, the TGI is > 24.4 µM in [7], 23.3 µM in experiment [8], 28.3 µM in experiment [9] and 49.8 µM in experiment [10].

Take `Cc1ccc(C2=CC(=O)OC(C[P+](c3ccccc3)(c3ccccc3)c3ccccc3)(c3ccccc3)O2)cc1` (stereo not given): the TGI was 34.9 µM in [1]; 42.7 µM in [2]; 57.7 µM in experiment [3]; 30.7 µM in experiment [4]; 30.5 µM in experiment [5]; > 100 µM in experiment [6]. The TGI came to 33.8 µM in [7], 49 µM in experiment [8], 40.2 µM in experiment [9] and 32.4 µM in experiment [10].

By TGI is commonly meant the concentration at which net growth stops. High values mean lower sensitivity of the cells, low ones greater sensitivity of the cells. One may read the GI50 as the concentration that inhibits growth by half.

(Values after PubChem BioAssay (NCI).)
